Reference: paper PMC11402846, “Does a postmortem redistribution affect the concentrations of the 7 azaindole-derived synthetic cannabinoid 5F-MDMB-P7AICA in tissues and body fluids following pulmonary administration to pigs?” (Archives of Toxicology, 2024)

Key:
P-glycoprotein = tested on: P-glycoprotein; set-up: method as in unpublished data of the authors; conditions: ref unpublished data of the authors; cited from earlier work
[1] = set-up: method as in Walle et al. [2023]; conditions: authentic fatal case, comparable survival time after drug intake; ref Walle et al. [2023]; cited from earlier work
[2] = Perimortem and postmortem concentrations in tissues and body fluids after pulmonary administration of 5F-MDMB-P7AICA to pigs (LC-MS/MS); format: in vivo; conditions: pig
Protocol: The experiments were conducted in compliance with the German legislation on protection of animals and the National Institutes of Health Guide for the Care and Use of Laboratory Animals (permission number 32/2018). Six domestic male pigs (Swabian Hall strain; body weight [BW] 40–51.2 kg, 3 months old) were kept with free access to water and standard daily food (OlymPig fattening feed, Raiffeisen, Münster, Germany). One night prior to the experiments, the animals were kept fasting. […] The room temperature was 22 ± 1 °C with a humidity of 55 ± 10%.
As previously described (Doerr et al. [2020]; Schaefer et al. [2019], [2020a]), an ethanolic solution of 5 mg/mL 5F-MDMB-P7AICA was prepared. An aliquot of 1.600–2.048 mL was filled up with ethanol to a total volume of 2 mL, if needed to achieve a concentration of 200 µg per kg BW. The SC was administered inhalatively over 6.5–8 min, using a M-Neb flow + ventilation ultrasonic nebulizer MN-300/7 (Nebutec, Elsenfeld, Germany) in the inspiration-triggered mode.
Animal euthanasia was conducted eight hours after the drug administration using T 61 (embutramide, 0.12 mL/kg BW, Intervet Deutschland GmbH, Unterschleißheim, Germany). Afterwards, the abdominal cavity was opened. Samples of the following organs, tissues and body fluids were collected (PMI 0) and stored at − 20 °C until further analysis: Brain (cerebrum), lungs and liver with no differentiation between the lobes, kidneys, muscle tissue (from the hindleg), adipose tissue (subcutaneous (sc), dorsal, perirenal), bile fluid, duodenum content, urine (only at PMI 0) and PB (V. jugularis) as well as CB.
The abdominal cavity was sutured leaving the organs in situ and the animal bodies were kept at room temperature in a supine position. Analogously, samples were taken again after 24, 48 and 72 h (PMI 1–3), respectively. Yet, PM PB specimens were obtained by sampling the coagulated blood from the V. femoralis or V. brachialis. For this purpose, the whole vessel was sampled and the blood was drawn therefrom using a pipette with a wide lumen.
Specimens were prepared according to a previous published method (Schaefer et al. [2017], [2019], [2020a]) with changes regarding the applied buffers and the amount of acetonitrile. An amount of 2 g of solid tissue (brain, lung, liver, kidney and muscle tissue) was homogenized (1:5 w/w with water), respectively and 1 g of body fluids (bile fluid, duodenum content, and urine) was diluted (1:10 w/w for bile and duodenum content, 1:5 w/w for urine, respectively, with water). The samples were stored at − 20 °C.
To determine the standard addition calibration curves, four 0.5 g aliquots were added to 20 µL of an ethanolic stable-isotope-labeled internal standard solution (SIL-IS, 1 ng/20 µL AB-FUBINACA-d4) and 25 µL of ethanol or an ethanolic solution of the analytes.
Subsequently, the solution was mixed with 500 µL of acetate buffer and 50 µL of β-glucuronidase/arylsulfatase and incubated for 2 h at 60 °C to induce enzymatic hydrolysis of the glucuronidated DBA (phase-II metabolite).
For the following protein precipitation, the samples were mixed with 500 µL of acetonitrile and centrifuged at 3500g for 8 min. The supernatants were transferred to 1 mL phosphate buffer (pH 9) vortexed and centrifuged at 3500g for 8 min again.
Solid phase extraction (SPE) was carried out using Strata C18 end capped cartridges (Phenomenex, Aschaffenburg, Germany), previously conditioned with 2 × 3 mL methanol and 3 mL phosphate buffer. After loading the samples, the columns were washed with 3 mL phosphate buffer, 3 mL acetic acid (0.25 M) and 3 mL deionized water, respectively. 60 μL acetone was added and columns were dried for 5 min using negative pressure (about 33 kPa). Thereafter, the analytes were eluted with a mixture of 1.5 mL methanol-acetone (1:1, v/v) and the eluate was evaporated under a gentle stream of nitrogen at 60 °C. […]

[3] = 200 µg/kg BW inhalative, PMI 0 (8 h after administration)
[4] = 200 µg/kg BW inhalative, PMI 1 (24 h after euthanasia, room temperature)
[5] = 200 µg/kg BW inhalative, PMI 2 (48 h after euthanasia, room temperature)
[6] = 200 µg/kg BW inhalative, PMI 3 (72 h after euthanasia, room temperature)

In the case of `COC(=O)C(NC(=O)c1cn(CCCCCF)c2ncccc12)C(C)(C)C` (stereo not shown) [5F-MDMB-P7AICA, methyl[2-[1-(5-fluoropentyl)-1H-pyrrolo[2,3-b]pyridin-3-yl]formamido]-3,3-dimethylbutanoate], the “substrate of the P-glycoprotein” value (P-glycoprotein) is given as “is a substrate of the P-glycoprotein”, the “CB concentration in fatal case” value [1] is given as 0.69 ng/mL and the “PB concentration in fatal case” value [1] is given as 1.2 ng/mL. The “Mean concentration ± SD in CB (central blood)” value (“Mean concentration ± SD in CB” for short) [2, 3] was 0.21 ± 0.10 n = 6 ng/mL, the “Mean concentration ± SD in bile fluid” value [2, 3] was 11 ± 9.9 n = 6 ng/g and the “Mean concentration ± SD in brain” value [2, 3] was 0.33 ± 0.15 n = 6 ng/g. For the same molecule, the “Mean concentration ± SD in dorsal fat” value [2, 3] was 30 ± 16 n = 6 ng/g, the “Mean concentration ± SD in duodenum content” value [2, 3] was 2.7 ± 3.1 n = 6 ng/g and the “Mean concentration ± SD in kidney” value [2, 3] was “No parent compound could be found and neg”. For the same molecule, the “Mean concentration ± SD in liver” value [2, 3] was 0.16 ± 0.043 n = 3 ng/g, the “Mean concentration ± SD in lung” value [2, 3] was 0.41 ± 0.26 n = 6 ng/g and the “Mean concentration ± SD in muscle” value [2, 3] was 0.62 ± 0.10 n = 6 ng/g. For the same molecule, the “Mean concentration ± SD in perirenal fat” value [2, 3] was 33 ± 31 n = 6 ng/g, the “Mean concentration ± SD in s.c. fat” value [2, 3] was 51 ± 30 n = 6 ng/g and the “Mean concentration ± SD in urine” value [2, 3] was “No parent compound could be found and neg”. For the same molecule, the “Mean concentration ± SD in CB” value [2, 4] was 0.25 ± 0.10 n = 5 ng/mL, the “Mean concentration ± SD in PB (peripheral blood)” value (“Mean concentration ± SD in PB” for short) [2, 4] was 0.67 ± 0.37 n = 6 ng/mL and the “Mean concentration ± SD in bile fluid” value [2, 4] was 3.5 ± 3.1 n = 6 ng/g. For the same molecule, the “Mean concentration ± SD in brain” value [2, 4] was 0.23 ± 0.10 n = 6 ng/g, the “Mean concentration ± SD in dorsal fat” value [2, 4] was 35 ± 26 n = 6 ng/g and the “Mean concentration ± SD in duodenum content” value [2, 4] was 0.44 ± 0.22 n = 6 ng/g. The “Mean concentration ± SD in kidney” value [2, 4] was 0.090–0.10 n = 2 ng/g, the “Mean concentration ± SD in liver” value [2, 4] was 0.21–0.29 n = 2 ng/g and the “Mean concentration ± SD in lung” value [2, 4] was 0.50 ± 0.085 n = 3 ng/g. For the same molecule, the “Mean concentration ± SD in muscle” value [2, 4] was 0.77 ± 0.28 n = 6 ng/g, the “Mean concentration ± SD in perirenal fat” value [2, 4] was 30 ± 20 n = 6 ng/g and the “Mean concentration ± SD in s.c. fat” value [2, 4] was 53 ± 43 n = 6 ng/g. For the same molecule, the “Mean concentration ± SD in CB” value [2, 5] was 0.20 ± 0.090 n = 5 ng/mL, the “Mean concentration ± SD in PB” value [2, 5] was 0.58 ± 0.35 n = 6 ng/mL and the “Mean concentration ± SD in brain” value [2, 5] was 0.10 ± 0.065 n = 6 ng/g. For the same molecule, the “Mean concentration ± SD in dorsal fat” value [2, 5] was 25 ± 15 n = 6 ng/g, the “Mean concentration ± SD in duodenum content” value [2, 5] was 0.59 ± 0.48 n = 5 ng/g and the “Mean concentration ± SD in kidney” value [2, 5] was 0.17 ± 0.16 n = 5 ng/g. For the same molecule, the “Mean concentration ± SD in liver” value [2, 5] was 1.1 ± 2.0 n = 6 ng/g, the “Mean concentration ± SD in lung” value [2, 5] was 0.65 ± 0.37 n = 5 ng/g and the “Mean concentration ± SD in muscle” value [2, 5] was 1.0 ± 0.67 n = 6 ng/g. For the same molecule, the “Mean concentration ± SD in perirenal fat” value [2, 5] was 32 ± 35 n = 6 ng/g, the “Mean concentration ± SD in s.c. fat” value [2, 5] was 40 ± 28 n = 6 ng/g and the “Mean concentration ± SD in CB” value [2, 6] was 0.24 ± 0.11 n = 5 ng/mL. The “Mean concentration ± SD in PB” value [2, 6] was 0.43 ± 0.16 n = 6 ng/mL, the “Mean concentration ± SD in brain” value [2, 6] was 0.16 ± 0.16 n = 4 ng/g and the “Mean concentration ± SD in dorsal fat” value [2, 6] was 33 ± 27 n = 6 ng/g. The “Mean concentration ± SD in duodenum content” value [2, 6] was 0.89 ± 0.71 n = 6 ng/g, the “Mean concentration ± SD in kidney” value [2, 6] was 0.23 ± 0.088 n = 5 ng/g and the “Mean concentration ± SD in liver” value [2, 6] was 0.44 ± 0.18 n = 5 ng/g. For the same molecule, the “Mean concentration ± SD in lung” value [2, 6] was 0.71 ± 0.54 n = 5 ng/g, the “Mean concentration ± SD in muscle” value [2, 6] was 2.3 ± 2.1 n = 6 ng/g and the “Mean concentration ± SD in perirenal fat” value [2, 6] was 22 ± 19 n = 6 ng/g. For the same molecule, the “Mean concentration ± SD in s.c. fat” value [2, 6] was 35 ± 26 n = 6 ng/g, the “Concentration in bile fluid” value ([2]; 200 µg/kg BW inhalative, PMI 3 (72 h after euthanasia, room temperature), only sampled from 2 pigs) was 3.6–7.4 n = 2^2 ng/g and the “Mean concentration ± SD in PB” value ([2]; 5F-MDMB-P7AICA 200 µg/kg BW inhalative, PMI 0 (8 h after administration)) was 0.57 ± 0.19 n = 6 ng/mL. The “Postmortem redistribution (PMR)” value ([2]; 3 days storage at room temperature) was “no relevant PMR was observed”, the “central-to-peripheral blood (C/P) concentration ratio” value ([2]; PMI 0) was “lower than 1” and the “liver-to-peripheral blood (L/P) ratio” value ([2]; PMI 0) was under 5. The C/P concentration ratio ([2]; PMI 1–3) was under 1, the L/P concentration ratio ([2]; PMI 1–3) was under 5 and the “Concentration change in liver specimens” value ([2]; PMI 2 and 3 versus PMI 0, p < 0.05) was “significant higher”. For the same molecule, the “Concentration change in muscle tissue” value ([2]; from PMI 0 to PMI 3, p < 0.05) was “significantly increased”.
